According to patent US20080312206A1, “Chemical Compounds-149” (AstraZeneca AB, priority 2005, published 2008):

Molecular target: T1, CSF-1R (Homo sapiens, UniProt P07333)
T1 construct: amino acids 568-912, GeneBank ID NM_005211; His; made in house; host or cells: baculovirus infected SF+Express insect cells
T1 sequence (P07333 568-912): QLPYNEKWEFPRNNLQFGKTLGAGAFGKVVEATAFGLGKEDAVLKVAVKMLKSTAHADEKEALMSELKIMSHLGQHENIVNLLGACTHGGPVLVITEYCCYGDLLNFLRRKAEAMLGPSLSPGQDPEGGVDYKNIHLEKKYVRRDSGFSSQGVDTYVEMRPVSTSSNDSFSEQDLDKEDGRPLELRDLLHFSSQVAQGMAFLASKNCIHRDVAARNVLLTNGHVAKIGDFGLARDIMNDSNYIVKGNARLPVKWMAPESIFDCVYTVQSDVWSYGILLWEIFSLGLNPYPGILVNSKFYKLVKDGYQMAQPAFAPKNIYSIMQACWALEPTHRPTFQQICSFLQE
Assay: CSF-1R In Vitro AlphaScreen Assay
Assay type: biochemical
Conditions: purified His-tagged kinase domain of CSF-1R, pEY substrate, 90 μM ATP
Experimental: CSF-1R In Vitro AlphaScreen Assay
Activity of purified CSF-1R was determined in vitro using an Amplified Luminescent Proximity Homogeneous Assay (ALPHA)(Perkin Elmer), which measures phosphorylation of the CSF-1R substrate, biotinylated poly-glutamine-tyrosine peptide (pEY-HTRF CisBio 61GT0BLD), as described below. The His-tagged kinase domain of CSF-1R (i.e., amino acids 568-912, GeneBank ID NM_005211; (see page 25 lines 13-19 of WO 2006/067445 for the sequence listing)) was purified from baculovirus infected SF+Express insect cells (1.4×10^6 cells/ml), French pressed and chromatographed through subsequent Qiagen Ni-NTA, Superflow Mono Q HR 10/10, and Superdex 200 SEC columns. Typical yield was 322 ug/l of cell pellet at >95% purity.
The phosphorylation of the CSF-1R substrate in the presence and absence of the compound of interest was determined. Briefly, 0.2 pM of purified CSF-1R, 5 nM pEY substrate, and compound were preincubated in 1× buffer for 30 minutes at 25° C. Reactions were initiated with addition of 90 μM adenosine triphosphate (ATP) in 1× buffer and incubated at 25° C. for 40 minutes and reactions stopped by addition of 5 μl of detection mix consisting of 136 mM NaCl, 102 mM ethylenediamine tetraacetic acid, 1.65 mg/ml BSA, 40 ug/ml Streptavidin donor beads (Perkin Elmer 6760620M), 40 ug/ml pEY100 acceptor beads (Perkin Elmer 6760620M). Plates were incubated at 25° C. for 18 hours in the dark. Phosphorylated substrate was detected by an EnVision plate reader (Perkin Elmer) 680 nm excitation, 520-620 nm emission. Data was graphed and IC50s calculated using Excel Fit (Microsoft).

Point of comparison: `CON(C)C(=O)c1ncc(NC(=O)c2cc(NC(=O)c3cccc(C(C)(C)C#N)c3)ccc2C)s1` [Example 15, 5-[(5-{[3-(1-Cyano-1-methylethyl)benzoyl]amino}-2-methylbenzoyl)amino]-N-methoxy-N-methyl-1,3-thiazole-2-carboxamide], IC50 7 nM. Against it:
- CC(C)c1ncc(NC(=O)c2cc(NC(=O)c3cc(F)cc(C(F)(F)F)c3)ccc2Cl)s1 [Example 21, 2-Chloro-5-{[3-fluoro-5-(trifluoromethyl)benzoyl]amino}-N-(2-isopropyl-1,3-thiazol-5-yl)benzamide] — 1.9-fold higher, 13 nM
- Cc1cc(C)cc(C(=O)Nc2ccc(Cl)c(C(=O)Nc3cnc(C(C)C)s3)c2)c1 [Example 20, 2-Chloro-5-[(3,5-dimethylbenzoyl)amino]-N-(2-isopropyl-1,3-thiazol-5-yl)benzamide] — within 1.5-fold, 10 nM
